# Test results from US20110105436A1, “HETEROARYL COMPOUNDS, COMPOSITIONS, AND METHODS OF USE IN CANCER TREATMENT” (AUCKLAND UNISERVICES LIMITED, priority 2008, published 2011).
# Entries after “also recorded” stand apart in the source; their conditions may differ.
# Key:
# Assay type in all cases: cell-based
# [1] = tested on: RCC4, RCC4/VHL, SN12C and SN12C-VHL shRNA cells; assay: Clonogenic cell survival assay
# Experimental: Clonogenic Cell Survival Assay. RCC4, RCC4/VHL, SN12C and SN12C-VHL shRNA were plated at 300 cells per 60 mm tissue culture dish. The following day, vehicle or STF-62247 was added and cells were incubated in the presence of drug for 10 days in RCC4 and RCC4/VHL and 7-10 days for SN12C and SN12C-VHL shRNA. The colonies were stained with crystal violet, and quantified. Each experiment was performed at least three times in triplicate.
# A. RCC4 and RCC4/VHL cells were labeled with EYFP and the effect of STF-62247 was monitored by fluorescence in each cell type separately. Cells are pseudocolored. B. Clonogenic assay in RCC4, RCC4/VHL, SN12C, SN12C-VHL shRNA cells in the presence of STF-62247 (0-30 μM). Each point of the cell survival is calculated by the average of three different experiments in triplicate as the percent of treated on untreated plate. The error bars represented the standard error of the mean (SEM). C. Upper Panel, clonogenic assay in RCC4 infected with HIF-1α or HIF-2α shRNA by retroviral infection in presence of drug in same conditions described above. Bottom panel, HIF-1α or HIF-2α protein expression evaluated by western blot in RCC4 cells with HIF-1α or HIF-2α shRNA. Tubulin is used as loading control. […] Tumor volume was measured every 2-3 days and data are represented in fold. Five tumors in each condition were analyzed where * p<0.05, **p<0.01 and ***p<0.005.
# [2] = tested on: LC3; assay: LC3 processing by Western blot and immunostaining; conditions: STF-62247 treatment, FIG. 2D, 2E
# Experimental: Western blot analysis. After treatments, cells were lysed in urea buffer (9M urea, 75 mM Tris (pH 7.5), 150 mM b-mercaptoethanol), placed on ice for 10 minutes and sonicated briefly (15 seconds). Extracts were centrifugated at 8,000×g for 10 minutes to eliminate insoluble material. Lysates were quantitated using Bio-Rad protein Assay (Bio-Rad Laboratories) and 20-30 μg of proteins were separated on a 7.5% or 15% bis-acrylamide gels and then transferred onto PVDF membranes. Proteins were visualized using HIF-2α (Novus Biological), HIF-1α, pVHL and BiP (BD Biosciences), LC3 (MBL), Atg5, or α-tubulin antibodies.
# Immunofluorescence staining. Cells were seeded on glass coverslips and at subconfluence, STF-62247 was added at 1.25 μM for RCC4 and 3.75 μM for SN12C. After 20 hours, cells were fixed in 3.7% formaldehyde for 10 min at room temperature and washed in PBS. Then cells were permeabilized in 0.2% Triton X-100 for 5 min at room temperature and washed in PBS. The coverslips were incubated with primary antibody LC3 diluted 1:500 in PBS containing 0.2% BSA for 1 hour at room temperature. Cells were washed three times in PBS-BSA and the bound primary antibody was detected using a fluorescein-conjugated secondary antibody (ALEXA) diluted 1:500 in PBS-BSA and incubated for 1 hour. Coverslips were washed and mounted in mounting medium from Vector Laboratories according to the manufacturer's instructions. Cells were examined with a confocal microscope
# (§1) A. Phase contrast pictures of VHL-deficient RCC4 and SN12C-VHL shRNA cells and VHL-positive cells RCC4 and SN12C after 20 hrs of 1.25 μM STF-62247. B. Immunostaining for LC3 following STF-62247 treatment at 1.25 μM for 20 hrs with or without 2 mM of 3-MA in RCC4 with and without VHL cells. After treatment, cells were fixed, permeabilized and processed for the detection of punctuate staining by indirect immunofluorescence. C. Autophagic vacuoles stained with monodansylcadaverine (MDC). After STF-62247 treatment in the same conditions, MDC was added for the last 10 minutes. Cells were fixed, washed with PBS and observed directly under microscope. D. Western blot for LC3 in RCC4, RCC4/VHL, SN12C, and SN12C-VHL shRNA cells after STF-62247 treatment with or without 3-MA. Nutrient starvation (EBSS) is used as positive control. E. Western blot for LC3 in RCC4 and RCC4/VHL with different concentrations of STF-62247. Tubulin was used as loading control. F. Cell viability assay in VHL-deficient RCC4 and wild-type VHL cells treated with 1 mM of 3-MA, 1.25 μM of STF-62247 alone or in combination for 24 hrs. Viability is measured by trypan blue exclusion assay and is represented by the average of three different experiments in duplicate as the percent of treated on untreated cells. The error bars are represented as SEM.
# A. VHL-deficient RCC4 and wild-type VHL were incubated in presence of 10 μM LY294002, or 1 μg/mlBrefeldin A with 1.25 μM of STF-62247 for 20 hrs and the presence of vacuoles was examined under light microscopy. B,C. LC3 processing was evaluated by Western blot after the treatment with Brefeldin A or LY294002 in presence or absence of STF-62247 as described above. Tubulin was used as loading control. D. Cells were treated with 1.25 μM of STF-62247 with or without 2 mM of 3-MA, 1 μg/ml of Brefeldin A for 20 hrs. For the last 15 min, acidic components were stained with 1 μg/ml of acridine orange and visualized under fluorescence microscope. […] F. Quantification of the FACS analysis. The data are calculated as the average of three different experiments as relative units of treated over untreated cells. The error bars are represented as the standard error of the mean (SEM).
# B,C. LC3 processing was evaluated by Western blot after the treatment with U0126 or tunicamycin in presence or absence of STF-62247 as described above. Tubulin was used as loading control.
# [3] = tested on: RCC4, RCC4/VHL, SN12C and SN12C-VHL shRNA cells; assay: Vacuole formation by light and time-lapse microscopy
# Experimental: as §1, with “E. Western blot for LC3 in RCC4 and RCC4/VHL with different concentrations of STF-62247. Tubulin was used as loading control. F. Cell viability assay in VHL-deficient RCC4 and wild-type VHL cells treated with 1 mM of 3-MA, 1.25 μM of STF-62247 alone or in combination for 24 hrs.” left out, “The error bars are represented as SEM.” left out
# A. RCC4 and RCC4/VHL were treated with 1.25 μM of each 19 analogs for 20 hours and the presence of vacuoles was examined under light microscopy. […] Acidic vesicle organelles (AVO) measured by FACS analysis in cells treated with 1.25 μM of STF-62247 or with compounds 21, 15, 25, 47, and 53 and stained with acridine orange.
structure (smiles),measurement,setting,value
"Cc1cccc(Nc2nc(-c3ccncc3)cs2)c1 [Compound 5, N-(3-Methylphenyl)-4-(4-pyridinyl)-1,3-thiazol-2-amine]",dependence of cytotoxicity on HIF,"[1]; RCC4 with HIF-1α or HIF-2α shRNA, RCC4/VHL with stable HIF-2α",induces cytotoxicity in VHL-null cells in a HIF-independent manner
same,selective toxicity in clonogenic assays,"[1]; VHL-deficient versus VHL wild-type cells, 0-30 μM, FIG. 1B",selectively toxic to VHL-deficient cells compared to their VHL wild-type counterparts
same,LC3-II (lipidated form),[2],induced by STF-62247 treatment; also recorded: increases in a concentration-dependent manner
same,vacuole formation,"[3]; 1.25 μM, 20 hrs, FIG. 2A",accumulated intracytoplasmic vacuoles characteristic of cells undergoing autophagy
same,time of appearance of vacuoles after addition,"[3]; time-lapse for 48 hours, RCC cells with and without VHL",3 h
